Activity calls are given as the source filed them. The calls are words filed in the database; no cut-off is given here.
Assays:
CEM-SS = assay: Concentration that provides 50% protection in the CEM-SS cells infected with HIV-2 strain; IA means inactive; assay type: functional, cell-based; conditions: Homo sapiens
[1] = target: Human immunodeficiency virus type 1 reverse transcriptase (Human immunodeficiency virus 1, UniProt Q72547); assay: Inhibitory activity against HIV-1 reverse transcriptase
MT4 [2] = assay: Concentration that provides 50% protection in the MT-4 cells infected with AZT-resistant HIV-1 6R strain; assay type: functional, cell-based; conditions: Homo sapiens
MT4 [3] = assay: Concentration that provides 50% protection in the MT-4 cells infected with AZT-resistant HIV-1 6S strain; assay type: functional, cell-based; conditions: Homo sapiens
MT4 [4] = assay: Concentration that provides 50% protection in the MT-4 cells infected with HIV-1 IIIBstrain; assay type: functional, cell-based; conditions: Homo sapiens
MT4 [5] = assay: Concentration that provides 50% protection in the MT-4 cells infected with nevirapine-resistant HIV-1 N119 strain; assay type: functional, cell-based; conditions: Homo sapiens
MO/Mphi [6] = assay: Concentration that provides 50% protection in the MO/Mphi cells infected with HIV-1 ADA strain; assay type: functional, cell-based; conditions: Homo sapiens
MO/Mphi [7] = assay: Concentration that provides 50% protection in the MO/Mphi cells infected with HIV-1 Ba-L strain; assay type: functional, cell-based; conditions: Homo sapiens
MO/Mphi [8] = assay: Concentration that results in 50% death of MO/Mphi cells infected with HIV-1 ADA strain; no toxicity was observed; assay type: functional, cell-based; conditions: Homo sapiens
MO/Mphi [9] = assay: Concentration that results in 50% death of MO/Mphi cells infected with HIV-1 Ba-L strain; no toxicity was observed; assay type: functional, cell-based; conditions: Homo sapiens
MT4 [10] = assay: Concentration that provides 50% protection in the MT-4 cells infected with pyridinone-resistant HIV-1 A17 strain; assay type: functional, cell-based; conditions: Homo sapiens
MT4 [11] = assay: Concentration that provides 50% protection in the MT-4 cells infected with SIV strain; assay type: functional, cell-based; conditions: Homo sapiens
MT4 [12] = assay: Concentration that results in 50% death of MT-4 cells infected with AZT resistant HIV-1 6R strain; no toxicity was observed; assay type: functional, cell-based; conditions: Homo sapiens
MT4 [13] = assay: Concentration that results in 50% death of MT-4 cells infected with HIV-1 6S strain; no toxicity was observed; assay type: functional, cell-based; conditions: Homo sapiens
MT4 [14] = assay: Concentration that results in 50% death of MT-4 cells infected with HIV-1 IIIB strain; no toxicity was observed; assay type: functional, cell-based; conditions: Homo sapiens
MT4 [15] = assay: Concentration that results in 50% death of MT-4 cells infected with Nevirapine resistant HIV-1 N119 strain; no toxicity was observed; assay type: functional, cell-based; conditions: Homo sapiens
MT4 [16] = assay: Concentration that results in 50% death of MT-4 cells infected with SIV strain; no toxicity was observed; assay type: functional, cell-based; conditions: Homo sapiens
MT4 [17] = assay: Concentration that results in 50% death of MT-4 cells infected with pyridinone-resistant HIV-1 A17 strain; no toxicity was observed; assay type: functional, cell-based; conditions: Homo sapiens
PBL [18] = assay: Concentration that provides 50% protection in the PBL cells infected with HIV-1 BAKI strain; assay type: functional, cell-based; conditions: Homo sapiens
PBL [19] = assay: Concentration that provides 50% protection in the PBL cells infected with HIV-1 VIHU strain; assay type: functional, cell-based; conditions: Homo sapiens
PBL [20] = assay: Concentration that provides 50% protection in the PBL cells infected with HIV-1 WEJO strain; assay type: functional, cell-based; conditions: Homo sapiens
PBL [21] = assay: Concentration that results in 50% death of PBL cells infected with HIV-1 BAKI strain; no toxicity was observed; assay type: functional, cell-based; conditions: Homo sapiens
PBL [22] = assay: Concentration that results in 50% death of PBL cells infected with HIV-1 VIHU strain; no toxicity was observed; assay type: functional, cell-based; conditions: Homo sapiens
PBL [23] = assay: Concentration that results in 50% death of PBL cells infected with HIV-1 WEJO strain; no toxicity was observed; assay type: functional, cell-based; conditions: Homo sapiens

Q: Which IA (CEM-SS) does the source give for CCCCCC=C(c1cc(Br)c(OC)c(C(=O)OC)c1)c1cc(Br)c(OC)c(C(=O)OC)c1 here?
A: inactive

Q: And the IC50 [1]?
A: 0.38 µM

Q: And the EC50 (MT4 [2])?
A: 6 µM

Q: What about the EC50 (MT4 [3]) of the same compound?
A: 0.56 µM

Q: And the EC50 (MT4 [4])?
A: 16 µM

Q: What about the EC50 (MT4 [5]) of the same compound?
A: 151 µM

Q: What about the EC50 (MO/Mphi [6]) of the same compound?
A: 1.85 µM

Q: And the EC50 (MO/Mphi [7])?
A: 5.5 µM

Q: What about the IC50 (MO/Mphi [8]) of the same compound?
A: > 200 µM

Q: And the IC50 (MO/Mphi [9])?
A: > 200 µM

Q: And the EC50 (MT4 [10])?
A: 14 µM

Q: And the EC50 (MT4 [11])?
A: 136 µM

Q: What about the IC50 (MT4 [12]) of the same compound?
A: > 200 µM

Q: What about the IC50 (MT4 [13]) of the same compound?
A: > 200 µM

Q: And the IC50 (MT4 [14])?
A: > 200 µM

Q: And the IC50 (MT4 [15])?
A: > 200 µM

Q: And the IC50 (MT4 [16])?
A: > 200 µM

Q: And the IC50 (MT4 [17])?
A: > 200 µM

Q: What about the EC50 (PBL [18]) of the same compound?
A: 15.2 µM

Q: And the EC50 (PBL [19])?
A: 24.9 µM

Q: What about the EC50 (PBL [20]) of the same compound?
A: 10.2 µM

Q: What about the IC50 (PBL [21]) of the same compound?
A: > 100 µM

Q: What about the IC50 (PBL [22]) of the same compound?
A: > 100 µM

Q: And the IC50 (PBL [23])?
A: > 100 µM

— ChEMBL document CHEMBL1149920, “Synthesis and biological evaluation of an alkenyldiarylmethane (ADAM) which acts as a novel non-nucleoside HIV-1 reverse transcriptase inhibitor” (Bioorg Med Chem Lett, 1995)
